{"source": "patent US20170333391A1", "about": "“METHOD FOR DELAYING THE ONSET OF PULMONARY FIBROSIS OR TREATING PULMONARY FIBROSIS” (EVERFRONT BIOTECH INC., priority 2016, published 2017)", "key": {"BMP-7 protein [1]": {"test_system": "BMP-7 protein", "assay": "BMP-7 protein expression in TGF-β1-induced NHLF, western blotting (Example 4)", "assay_type": "cell-based, human", "conditions": "uninduced control = 1, TGF-β1-only group A = 0.19", "protocol": "Normal Human lung fibroblasts (NHLF) were seeded into 6 cm culture dishes at a density of 2×10^5 cells/dish, comprising a control group and five experimental groups (6 dishes in total). The cells were cultured until the next day, and then the mediums were removed. Each group was respectively treated under the following conditions to conduct follow-up experiments: • (1) Control group: cells were cultured in a FGM-2 medium containing 1% serum for 36 hours; • (2) Group A: cells were cultured in a FGM-2 medium containing 1% serum and TGF-β1 (5 ng/ml) for 36 hours; • (3) Group B: cells were firstly cultured in a FGM-2 medium containing 1% serum and TGF-β1 (5 ng/ml) for 12 hours, and then compound (1) was added into the medium to provide a final concentration of 15 μg/ml; thereafter, the cells were cultured for another 24 hours; • (4) Group C: cells were firstly cultured in a FGM-2 medium containing 1% serum and TGF-β1 (5 ng/ml) for 12 hours, and then compound (1) was added into the medium to provide a final concentration of 30 μg/ml; thereafter, the cells were cultured for another 24 hours; • (5) Group D: cells were firstly cultured in a FGM-2 medium containing 1% serum and TGF-β1 (5 ng/ml) for 12 hours, and then compound (2) was added into the medium to provide a final concentration of 100 μg/ml; thereafter, the cells were cultured for another 24 hours; and • (6) Group E: cells were firstly cultured in a FGM-2 medium containing 1% serum and TGF-β1 (5 ng/ml) for 12 hours, and then compound (2) was added into the medium to provide a final concentration of 200 μg/ml; thereafter, the cells were cultured for another 24 hours.\nThereafter, the proteins in the cells of each group were extracted, and the expressions of BMP-7 protein, TGF-β protein and p-smad2/3 protein in the NHLF cells of each group were measured with western blotting. The results of the control group served as the basis for calculating the relative expression levels of the other groups."}, "BMP-7 protein [2]": {"test_system": "BMP-7 protein", "assay": "BMP-7 protein expression in TGF-β1-induced NHLF, western blotting (2-2)", "assay_type": "cell-based, human", "conditions": "TGF-β1-only control group = 1", "protocol": "Normal Human lung fibroblasts (NHLF) were seeded into 6 cm culture dishes at a density of 2×10^5 cells/dish, comprising a control group and six experimental groups (7 dishes in total). The cells were cultured until the next day, and then the mediums were removed. Each group was respectively treated under the following conditions to conduct follow-up experiments: • (1) Positive control group: cells were cultured in a FGM-2 medium containing 1% serum and TGF-β1 (5 ng/ml) for 36 hours; • (2) Group I: cells were firstly cultured in a FGM-2 medium containing 1% serum and TGF-β1 (5 ng/ml) for 12 hours, and then compound (1) was added into the medium to provide a final concentration of 15 μg/ml; thereafter, the cells were cultured for another 24 hours; • (3) Group II: cells were firstly cultured in a FGM-2 medium containing 1% serum and TGF-β1 (5 ng/ml) for 12 hours, and then compound (1) was added into the medium to provide a final concentration of 25 μg/ml; thereafter, the cells were cultured for another 24 hours; • (4) Group III: cells were firstly cultured in a FGM-2 medium containing 1% serum and TGF-β1 (5 ng/ml) for 12 hours, and then compound (1) was added into the medium to provide a final concentration of 35 μg/ml; thereafter, the cells were cultured for another 24 hours; • (5) Group IV: cells were firstly cultured in a FGM-2 medium containing 1% serum and TGF-β1 (5 ng/ml) for 12 hours, and then the Pirfenidone was added into the medium to provide a final concentration of 100 μg/ml; thereafter, the cells were cultured for another 24 hours; • (6) Group V: cells were firstly cultured in a FGM-2 medium containing 1% serum and TGF-β1 (5 ng/ml) for 12 hours, and then the Pirfenidone was added into the medium to provide a final concentration of 250 μg/ml; thereafter, the cells were cultured for another 24 hours; and • (7) Group VI: cells were firstly cultured in a FGM-2 medium containing 1% serum and TGF-β1 (5 ng/ml) for 12 hours, and then the Pirfenidone was added into the medium to provide a final concentration of 500 μg/ml; thereafter, the cells were cultured for another 24 hours.\nThereafter, the proteins in the cells of each group were extracted, and the expressions of type I collagen, BMP-7 protein and TGF-β protein in the NHLF cells of each group were measured with western blotting. The results of the control group served as the basis for calculating the relative expression levels of the other groups."}, "[3]": {"test_system": "C57B/L6 mice injected with Bleomycin sulfate (inducer of pulmonary fibrosis)", "assay": "Lung tissue slice observation (H&E stain) in Bleomycin sulfate mice", "assay_type": "in vivo", "conditions": "compared to oil group", "protocol": "24 C57B/L6 mice (age: four weeks) were separated into four groups (6 mice in each group). Each group was respectively treated under the following conditions to conduct follow-up experiments: • (1) Control group (mice without pulmonary fibrosis; i.e., normal mice): 50 μl of PBS was administrated to each mouse by intratracheal injection, and then the mice were fed for 30 days; • (2) Oil group: 0.6 U/50 μl of Bleomycin sulfate (dissolved in PBS) was administrated to each mouse by intratracheal injection, and then 100 μl of olive oil was orally administrated to each mouse every day for 30 days; • (3) Low-dose group: 0.6 U/50 μl of Bleomycin sulfate (dissolved in PBS) was administrated to each mouse by intratracheal injection, and then compound (1) (10 mg/kg-body weight, prepared with olive oil to provide a final volume of 100 μl) was orally administrated to each mouse every day for 30 days; and • (4) High-dose group: 0.6 U/50 μl of Bleomycin sulfate (dissolved in PBS) was administrated to each mouse by intratracheal injection, and then compound (1) (50 mg/kg-body weight, prepared with olive oil to provide a final volume of 100 μl) was orally administrated to each mouse every day for 30 days.\nAfter completing the measurement of the pulmonary function in Example 6, the mice were sacrificed. Pulmonary tissue samples were taken from the mice, and separated into two groups (each group comprised samples from the control group, oil group, low-dose group and high-dose group). One of the two groups was preserved at −20° C. for the follow-up experiment, and the other group was analyzed by hematoxylin-sosin stain (H&E stain)."}, "[4]": {"conditions": "High-dose group, compound (1) 50 mg/kg orally daily 30 days"}, "[5]": {"conditions": "Low-dose group, compound (1) 10 mg/kg orally daily 30 days"}}, "data": [{"smiles": "CCCC=C1OC(=O)c2ccccc21", "note": "[compound (1)]", "values": [{"measurement": "Relative expression level (fold) BMP-7 protein", "setting": "BMP-7 protein [1]; Group B: TGF-β1 5 ng/ml 12 h, then compound (1) 15 μg/ml 24 h", "value": 0.68, "unit": "fold"}, {"measurement": "Relative expression level (fold) BMP-7 protein", "setting": "BMP-7 protein [1]; Group C: TGF-β1 5 ng/ml 12 h, then compound (1) 30 μg/ml 24 h", "value": 0.31, "unit": "fold"}, {"measurement": "Relative expression level (fold) BMP-7 protein", "setting": "BMP-7 protein [2]; Group I: TGF-β1 5 ng/ml 12 h, then compound (1) 15 μg/ml 24 h", "value": 1.57, "unit": "fold"}, {"measurement": "Relative expression level (fold) BMP-7 protein", "setting": "BMP-7 protein [2]; Group II: TGF-β1 5 ng/ml 12 h, then compound (1) 25 μg/ml 24 h", "value": 1.80, "unit": "fold"}, {"measurement": "Relative expression level (fold) BMP-7 protein", "setting": "BMP-7 protein [2]; Group III: TGF-β1 5 ng/ml 12 h, then compound (1) 35 μg/ml 24 h", "value": 1.68, "unit": "fold"}, {"measurement": "alveolar wall tissue thickness (H&E stain)", "setting": "[3]; [4]", "value": "significantly thinner"}, {"measurement": "level of abnormal infiltration of pulmonary cells (H&E stain)", "setting": "[3]; [4]", "value": "significantly less"}, {"measurement": "alveolar wall tissue thickness (H&E stain)", "setting": "[3]; [5]", "value": "significantly thinner"}, {"measurement": "level of abnormal infiltration of pulmonary cells (H&E stain)", "setting": "[3]; [5]", "value": "significantly less"}]}]}
